Measured values as given in patent US20070166729A1, “Method and reagent for sequencing” (Hitachi, Ltd., priority 2005, published 2007).

Experiments:
[1] = system: luciferase luminescence reaction with ATP produced using PPi; test: Luminescence from DNA complementary strand synthesis at varying AMP concentrations (FIG. 7); type: biochemical; conditions: luminescence obtained by adding DNA
Source text: FIG. 7 is a graph showing the relationship between AMP concentrations and signal intensity variations obtained in luciferase luminescence reaction with ATP produced using PPi obtained in DNA complementary strand synthesis. The horizontal axis of the graph indicates AMP concentrations in the reaction solution;
The luminescence obtained by adding DNA (light emitted by PPi obtained in DNA complementary strand synthesis) is generated only in the presence of AMP. […] AMP concentrations giving sufficient luminescence intensity are within the range of 30 to 600 μM. As is obvious, the use of AMP within this concentration range enables sequencing with 0.1 pmol DNA sample.

thermostable PPDK = conditions: cited from earlier work; for Specificity / Michaelis constants: thermostable PPDK; for Specificity: relative value in brackets, AMP = 100; for Michaelis constants: substrate named in brackets
luciferase [2] = biological target: T1, luciferase (Photinus pyralis, UniProt P08659); conditions: relative to ATP, cited from earlier work
T1 sequence (P08659 whole entry, species assumed): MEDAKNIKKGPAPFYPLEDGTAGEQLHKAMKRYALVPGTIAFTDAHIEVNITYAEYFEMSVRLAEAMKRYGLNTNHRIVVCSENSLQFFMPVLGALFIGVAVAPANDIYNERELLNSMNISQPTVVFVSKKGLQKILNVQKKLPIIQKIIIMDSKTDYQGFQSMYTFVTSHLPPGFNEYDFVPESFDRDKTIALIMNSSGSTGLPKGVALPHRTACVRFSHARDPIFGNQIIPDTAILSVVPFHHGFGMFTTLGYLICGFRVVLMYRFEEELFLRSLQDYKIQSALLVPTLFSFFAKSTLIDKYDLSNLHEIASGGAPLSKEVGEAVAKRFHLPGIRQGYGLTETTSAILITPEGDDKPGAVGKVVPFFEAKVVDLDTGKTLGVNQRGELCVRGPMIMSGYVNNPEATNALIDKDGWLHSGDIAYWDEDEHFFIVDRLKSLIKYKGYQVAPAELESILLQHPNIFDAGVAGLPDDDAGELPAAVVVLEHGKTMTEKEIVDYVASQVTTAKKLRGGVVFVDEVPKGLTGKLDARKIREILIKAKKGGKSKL

luciferase [3] = biological target: T1, luciferase; test: APS as substrate for luminescent reaction catalyzed by luciferase; type: biochemical; conditions: 5 μM APS, reaction solution 100 μl
Method: Pyrosequencing detects chemiluminescence derived from ATP produced from the reaction of PPi produced in DNA complementary strand synthesis with APS in the presence of ATP sulfurylase. […] For example, APS, though having approximately 1/1000 of reaction efficiency of ATP, reacts as a substrate with luciferase to emit light. To efficiently convert PPi produced in complementary strand synthesis to ATP, approximately 5 μM APS must usually be added to the reaction solution. When the volume of the reaction solution is set to 100 μl, 5 μM APS generates luminescence corresponding to approximately 500 fmol ATP. Thus, DNA sequencing with high precision by pyrosequencing must employ a DNA sample of a picomole level and large amounts of reagents commensurate therewith.
When sequencing is performed with 0.1 pmol DNA sample, which is 1/10 of the DNA sample amount (1 pmol) conventionally used, the amount of background light must be equal to or lower than the amount of chemiluminescence emitted by 0.01 pmol ATP. […] Under the conditions of pyrosequencing, the efficiency of the luminescence process with ATP as a substrate is reduced due to the coexistence of apyrase, an enzyme that degrades dNTP and ATP. […]

ATP sulfurylase = ATP sulfurylase (Saccharomyces cerevisiae, UniProt P08536); conditions: read-out: Michaelis constant of reaction for forming the complexes of APS and the enzyme (Km), has been reported; cited from earlier work
ATP sulfurylase, sequence (P08536 whole entry, species assumed): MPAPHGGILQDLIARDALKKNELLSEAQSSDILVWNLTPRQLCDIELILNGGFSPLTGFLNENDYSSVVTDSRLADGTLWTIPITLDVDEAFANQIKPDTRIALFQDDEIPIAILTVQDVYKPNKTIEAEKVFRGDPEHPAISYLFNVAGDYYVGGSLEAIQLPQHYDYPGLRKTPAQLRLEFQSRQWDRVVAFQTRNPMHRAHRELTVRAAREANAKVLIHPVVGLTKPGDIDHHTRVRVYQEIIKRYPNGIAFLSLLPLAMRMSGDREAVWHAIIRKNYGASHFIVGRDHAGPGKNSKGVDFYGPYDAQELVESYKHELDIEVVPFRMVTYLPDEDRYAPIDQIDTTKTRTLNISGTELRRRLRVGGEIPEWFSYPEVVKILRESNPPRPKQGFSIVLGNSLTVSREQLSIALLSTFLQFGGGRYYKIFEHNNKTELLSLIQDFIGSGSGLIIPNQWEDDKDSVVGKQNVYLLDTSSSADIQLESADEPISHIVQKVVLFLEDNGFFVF

thermostable luciferase = conditions: substrate named in brackets; cited from earlier work

Q: Which results are given for Nc1ncnc2c1ncn2[C@@H]1O[C@H](COP(=O)(O)O)[C@@H](O)[C@H]1O [AMP]?
A: AMP concentration at luminescence peak [1]: around 100 μM; Km (thermostable PPDK; have been reported, read-out: Michaelis constants (Km) of PPDK and AMP): 5 µM; Specificity (thermostable PPDK): 100; Michaelis constants (thermostable PPDK): 501 µM

Q: With Nc1ncnc2c1ncn2[C@@H]1O[C@H](COP(=O)(O)OS(=O)(=O)O)[C@@H](O)[C@H]1O [APS, adenosine 5′-phosphosulfate] as the molecule, how does the “reaction efficiency of ATP (fraction) as luciferase substrate” value (luciferase [2]) read?
A: Its value is “approximately 1/1000”.

Q: What about the “activity to ATP as substrate for luminescent reaction catalyzed by luciferase” value (luciferase [2]; has been reported) of the same molecule?
A: Its value is 0.6×10^−3.

Q: And the “luminescence corresponding to ATP” value (luciferase [3])?
A: Its value is “approximately 500 fmol”.

Q: And the Km (ATP sulfurylase)?
A: Its Km is 0.56 µM.

Q: Which Michaelis constants (thermostable PPDK) does the source give for Nc1ncnc2c1ncn2[C@@H]1O[C@H](COP(=O)(O)OP(=O)(O)OP(=O)(O)O)[C@@H](O)[C@H]1O [ATP] here?
A: The Michaelis constants was 201 µM.

Q: With Nc1ccn([C@@H]2O[C@H](COP(=O)(O)O)[C@@H](O)[C@H]2O)c(=O)n1 [CMP] as the molecule, how does the Specificity (thermostable PPDK) read?
A: The Specificity was “CMP (0), GMP (0)”.

Q: With O=C(O)[C@H]1CSC(c2nc3ccc(O)cc3s2)=N1 [D-luciferin] as the molecule, how does the Michaelis constants (thermostable luciferase) read?
A: The Michaelis constants was 1.5104 M (D-luciferin).

Q: Which Specificity (thermostable PPDK) does the source give for Nc1nc2c(ncn2[C@@H]2O[C@H](COP(=O)(O)O)[C@@H](O)[C@H]2O)c(=O)[nH]1 [GMP] here?
A: Its Specificity is “CMP (0), GMP (0)”.

Q: With O=P(O)(O)OP(=O)(O)O [PPi, pyrophosphate] as the molecule, how does the Michaelis constants (thermostable PPDK) read?
A: The Michaelis constants was 381 µM.

Q: For Cc1cn([C@H]2C[C@H](O)[C@@H](COP(=O)(O)O)O2)c(=O)[nH]c1=O [TMP], which Specificity (thermostable PPDK) is on record?
A: The Specificity was 0.

Q: For O=c1ccn([C@@H]2O[C@H](COP(=O)(O)O)[C@@H](O)[C@H]2O)c(=O)[nH]1 [UMP], which Specificity (thermostable PPDK) is on record?
A: The Specificity was 0.

Q: With C=C(OP(=O)(O)O)C(=O)O [phosphoenolpyruvate] as the molecule, how does the Michaelis constants (thermostable PPDK) read?
A: Its Michaelis constants is 281 µM.
